Measured values taken from the SangsterLogP compilation.

Assay: method code SF-AS, from PMID: 6637504
Conditions: pH 5.0

Row | logD | Compound
1 | 1.22 | CC1CCn2c(nc3c(c2=O)CCC3)C1 (stereo not drawn)
2 | 1.41 | O=c1c2c(nc3n1CCC3)CCCCCC2
3 | 1.72 | Cc1cccn2c(=O)c3c(nc12)CCC3
4 | 1.19 | O=c1c2c(nc3ccccn13)CCC2
5 | 0.83 | O=c1c2c(nc3n1CCC3)CCCC2
6 | 1.07 | O=c1c2ccccc2nc2n1CCC2
7 | 1.8 | CCc1c(C)nc2cc(C)cc(C)n2c1=O
8 | 1.25 | O=c1c2c(nc3n1CCC3)CCCCC2
9 | 1.85 | CCCc1c(C)nc2ccccn2c1=O
10 | 2.77 | O=c1c2c(nc3n1CCCCCC3)CCCCCC2
11 | 0.72 | O=c1c2c(nc3n1CCCC3)CCC2
12 | 1.21 | CC1CCCc2nc3c(c(=O)n21)CCC3 (stereo not drawn)
13 | 1.2 | CC1CCc2nc3c(c(=O)n2C1)CCC3 (stereo not drawn)
